We go through 1 molecule from BindingDB's records for patent US9539260 (Novartis AG, 2017).

Molecules are shown by their SMILES.

Experiment [1] deals with T1, Phosphatidylinositol 4,5-bisphosphate 3-kinase catalytic subunit delta isoform (Homo sapiens, UniProt O00329).
T1 sequence (O00329 whole entry): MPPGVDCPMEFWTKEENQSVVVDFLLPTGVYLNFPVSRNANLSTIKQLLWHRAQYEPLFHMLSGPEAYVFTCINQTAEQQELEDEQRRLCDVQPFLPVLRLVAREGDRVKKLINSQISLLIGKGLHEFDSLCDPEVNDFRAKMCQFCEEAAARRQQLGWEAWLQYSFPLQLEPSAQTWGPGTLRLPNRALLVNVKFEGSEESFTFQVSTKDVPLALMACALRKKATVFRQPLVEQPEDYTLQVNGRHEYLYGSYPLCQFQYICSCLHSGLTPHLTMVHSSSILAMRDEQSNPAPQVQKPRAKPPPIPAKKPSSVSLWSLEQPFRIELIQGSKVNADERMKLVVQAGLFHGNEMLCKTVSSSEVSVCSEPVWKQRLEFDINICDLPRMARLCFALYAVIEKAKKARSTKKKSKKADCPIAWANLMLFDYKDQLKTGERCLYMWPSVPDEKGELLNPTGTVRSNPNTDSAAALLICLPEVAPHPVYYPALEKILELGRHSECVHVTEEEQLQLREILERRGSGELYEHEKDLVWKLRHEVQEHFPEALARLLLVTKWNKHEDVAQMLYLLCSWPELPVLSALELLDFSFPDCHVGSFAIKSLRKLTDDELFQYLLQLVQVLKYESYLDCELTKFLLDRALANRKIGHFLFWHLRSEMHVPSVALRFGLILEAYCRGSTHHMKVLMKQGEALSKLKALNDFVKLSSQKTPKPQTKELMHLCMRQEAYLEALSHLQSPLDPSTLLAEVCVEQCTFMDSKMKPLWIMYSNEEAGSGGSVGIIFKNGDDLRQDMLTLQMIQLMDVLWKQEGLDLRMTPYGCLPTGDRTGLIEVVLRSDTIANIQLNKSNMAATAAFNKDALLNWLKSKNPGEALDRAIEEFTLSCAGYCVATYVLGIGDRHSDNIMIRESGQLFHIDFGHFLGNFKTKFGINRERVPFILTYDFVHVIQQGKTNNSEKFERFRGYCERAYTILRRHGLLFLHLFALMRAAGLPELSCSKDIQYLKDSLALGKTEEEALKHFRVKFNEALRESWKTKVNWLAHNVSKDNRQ
The experiment in a line: Inhibition Assay. Conditions: 25 °C. The method, then: (§1) The final concentrations of ATP and phosphatidyl inositol in the assay are 5 μM and 6 μg/mL, respectively. […] The final concentrations of ATP and phosphatidyl inositol (PI) in the assay are 1 μM and 10 μg/mL, respectively.

The target of experiment [2] is Phosphatidylinositol 4,5-bisphosphate 3-kinase catalytic subunit alpha isoform (Homo sapiens, UniProt P42336). Description: Inhibition Assay. Conditions: 25 °C. Here is the method: as §1
Sequence of Phosphatidylinositol 4,5-bisphosphate 3-kinase catalytic subunit alpha isoform (P42336 whole entry, canonical isoform): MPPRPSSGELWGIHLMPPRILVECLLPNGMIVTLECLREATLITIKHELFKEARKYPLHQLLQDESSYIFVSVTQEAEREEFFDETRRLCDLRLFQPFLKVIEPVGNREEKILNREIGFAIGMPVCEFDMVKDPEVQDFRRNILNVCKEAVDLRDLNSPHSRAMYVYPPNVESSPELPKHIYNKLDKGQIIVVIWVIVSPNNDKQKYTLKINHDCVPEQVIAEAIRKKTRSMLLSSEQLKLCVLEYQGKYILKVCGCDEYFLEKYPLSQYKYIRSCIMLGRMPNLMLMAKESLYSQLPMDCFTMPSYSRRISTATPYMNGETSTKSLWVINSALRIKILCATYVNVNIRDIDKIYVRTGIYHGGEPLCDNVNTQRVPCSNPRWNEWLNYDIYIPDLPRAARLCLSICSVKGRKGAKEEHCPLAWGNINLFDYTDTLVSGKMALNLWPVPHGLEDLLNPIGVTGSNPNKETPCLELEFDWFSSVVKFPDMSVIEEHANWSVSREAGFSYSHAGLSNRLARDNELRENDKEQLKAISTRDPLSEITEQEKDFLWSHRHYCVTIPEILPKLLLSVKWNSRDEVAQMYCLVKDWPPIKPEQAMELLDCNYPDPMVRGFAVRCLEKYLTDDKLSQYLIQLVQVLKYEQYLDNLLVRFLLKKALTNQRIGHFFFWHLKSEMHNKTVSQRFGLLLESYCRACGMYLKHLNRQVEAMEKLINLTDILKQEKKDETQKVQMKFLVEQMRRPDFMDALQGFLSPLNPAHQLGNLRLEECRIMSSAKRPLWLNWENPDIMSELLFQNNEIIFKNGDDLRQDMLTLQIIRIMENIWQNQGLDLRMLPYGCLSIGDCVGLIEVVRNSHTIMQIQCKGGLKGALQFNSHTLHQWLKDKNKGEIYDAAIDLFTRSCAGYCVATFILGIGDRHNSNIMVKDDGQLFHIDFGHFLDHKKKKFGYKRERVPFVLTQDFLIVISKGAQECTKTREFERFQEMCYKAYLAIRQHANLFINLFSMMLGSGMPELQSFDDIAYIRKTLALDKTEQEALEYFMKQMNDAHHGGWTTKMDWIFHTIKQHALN

For orientation: IC50 means the concentration that gives 50% inhibition. High values mean weaker potency, low ones greater potency. For the molecule `COc1ncc(N2CCOc3ccc(O[C@H]4CCN(C(=O)C5COCCO5)C4)cc32)cc1F` (some centres not stated) [US9539260, B115], the IC50 in experiment [1] stood at 23 nM; in experiment [2] it was 468 nM.
